# Assay results as given in US10155769B2, “Fused azaheterocyclic compounds and their use as AMPA receptor modulators” (Janssen Pharmaceutica NV, priority 2016, dated 2018).
# Target: GluA1o-γ8 (Homo sapiens (Human), UniProt P42261+Q8WXS5)
# Assay: Calcium flux assay (FLIPR), inhibition of TARP γ8 dependent AMPA receptor activity
# Type: cell-based
# Settings: HEK293 cells stably expressing GRIA1o-CACNG8 fusion construct; calcium flux following 15 μM glutamate; negative log of IC50 in molar
# From the text: This assay was used to test compounds for their ability to inhibit TARP γ8 dependent AMPA receptor activity. The AMPA receptor is a non-selective cation channel activated by glutamate. Ionotropic glutamate receptors normally desensitize too rapidly to allow detectable calcium influx in a FLIPR assay (Strange et al. (2006). “Functional characterisation of homomeric ionotropic glutamate receptors GluR1-GluR6 in a fluorescence-based high throughput screening assay.” Comb Chem High Throughput Screen 9(2): 147-158). But, this desensitization is incomplete, and a substantial steady-state current remains in the sustained presence of glutamate (Cho et al. (2007). “Two families of TARP isoforms that have distinct effects on the kinetic properties of AMPA receptors and synaptic currents.” Neuron 55(6): 890-904).
# An in vitro assay was used to determine the potency of test compounds as inhibitors of the glutamate response of the channel formed by GluA1o-γ8. To ensure a 1:1 stoichiometry of GluA1o and γ8 subunits in the expressed channel, a fusion of the cDNAs for GRIA1o and CACNG8 was used. Following Shi et al (2009) “The stoichiometry of AMPA receptors and TARPs varies by neuronal cell type.” Neuron 62(5): 633-640), the C-terminus of the cDNA for GRIA1o was fused to the N-terminus of the cDNA for γ8. The linker sequence was QQQQQQQQQQEFAT. Channels expressed with this construct appear to have similar properties to channels formed by co-expression of GRIA1o with an excess of CACNG8 (Shi et al. 2009). A clonal cell line in HEK293 cells stably expressing this construct, with a geneticin selection marker, was generated for use in this assay.
# Cell expressing the GRIA1o-CACNG8 fusion construct were grown in a monolayer in 96- or 384-well microtiter plates. They were washed with assay buffer (135 mM NaCl, 4 mM KCl, 3 mM CaCl2, 1 mM MgCl2, 5 mM glucose, 10 mM HEPES, pH 7.4, 300 mOs) using a Biotek EL405 plate washer. The cells were then loaded with a calcium-sensitive dye (Calcium-5 or Calcium-6, Molecular Devices) and the test compounds at a range of concentrations. Calcium flux following the addition of 15 μM glutamate was monitored using a Molecular Devices FLIPR Tetra.
# The fluorescence in each well was normalized to the fluorescence of negative and positive control wells. The negative control wells had no added compounds, and the positive control wells had been incubated with 10 μM CP465022 (a non-subtype-selective AMPA receptor antagonist) (Lazzaro et al. (2002). “Functional characterization of CP-465,022, a selective, noncompetitive AMPA receptor antagonist.” Neuropharmacology 42(2): 143-153). The responses to glutamate as functions of the test compound concentrations were fitted to a four-parameter logistic function. The fitted parameter corresponding to the midpoint was taken to be the potency of inhibition of the compound. The data in Table 4 below illustrates the observed potency for the compounds described herein. pIC50 refers to the negative log of the IC50 in molar.
# Sequence of GluA1o-γ8 (P42261 other isoform, or with tags, fused parts or gaps): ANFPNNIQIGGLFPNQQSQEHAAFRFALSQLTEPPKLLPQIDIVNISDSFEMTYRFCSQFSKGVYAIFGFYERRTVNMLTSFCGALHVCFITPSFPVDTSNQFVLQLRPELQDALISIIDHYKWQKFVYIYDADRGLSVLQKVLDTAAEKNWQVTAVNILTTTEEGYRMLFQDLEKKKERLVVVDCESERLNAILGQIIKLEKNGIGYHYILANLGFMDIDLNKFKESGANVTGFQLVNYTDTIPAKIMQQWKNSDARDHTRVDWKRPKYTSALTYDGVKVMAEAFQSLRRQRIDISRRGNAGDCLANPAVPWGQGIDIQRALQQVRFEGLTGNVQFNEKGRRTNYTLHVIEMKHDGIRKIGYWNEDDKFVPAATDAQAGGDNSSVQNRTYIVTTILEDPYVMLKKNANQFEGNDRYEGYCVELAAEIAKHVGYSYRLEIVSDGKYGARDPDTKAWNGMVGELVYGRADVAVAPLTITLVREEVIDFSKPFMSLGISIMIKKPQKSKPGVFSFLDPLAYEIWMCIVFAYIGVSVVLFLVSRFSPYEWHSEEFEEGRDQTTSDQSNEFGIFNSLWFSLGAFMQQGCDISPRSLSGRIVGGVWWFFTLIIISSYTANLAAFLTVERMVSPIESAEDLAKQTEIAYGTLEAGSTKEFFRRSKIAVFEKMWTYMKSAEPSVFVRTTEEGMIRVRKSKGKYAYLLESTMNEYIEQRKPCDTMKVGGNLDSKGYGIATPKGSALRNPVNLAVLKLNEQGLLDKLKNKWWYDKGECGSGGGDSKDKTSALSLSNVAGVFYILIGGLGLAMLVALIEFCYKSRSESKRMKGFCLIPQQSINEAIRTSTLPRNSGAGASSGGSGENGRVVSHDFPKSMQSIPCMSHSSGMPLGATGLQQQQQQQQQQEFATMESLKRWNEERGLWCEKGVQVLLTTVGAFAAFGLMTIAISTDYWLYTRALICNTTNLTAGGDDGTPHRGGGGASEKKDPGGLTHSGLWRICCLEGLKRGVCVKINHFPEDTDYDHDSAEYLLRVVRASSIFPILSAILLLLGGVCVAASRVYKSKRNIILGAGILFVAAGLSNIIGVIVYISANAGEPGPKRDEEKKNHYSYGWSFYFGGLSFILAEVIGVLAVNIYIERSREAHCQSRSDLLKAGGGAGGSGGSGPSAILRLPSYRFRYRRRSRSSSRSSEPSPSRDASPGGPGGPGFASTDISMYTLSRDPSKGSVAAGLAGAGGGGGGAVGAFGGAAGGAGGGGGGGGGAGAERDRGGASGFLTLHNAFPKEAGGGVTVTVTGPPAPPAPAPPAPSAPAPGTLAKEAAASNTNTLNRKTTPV
structure (smiles),measurement,value
"CCc1ncn2cc(C(F)(F)F)nc2c1-c1cc(C)c2[nH]ncc2c1 [Example 74, 7-Ethyl-8-(7-methyl-1H-indazol-5-yl)-2-(trifluoromethyl)imidazo[1,2-c]pyrimidine]",pIC50,8.7
"Fc1ccc(-c2ccn3nc(C(F)(F)F)nc3c2-c2cc(Cl)c3[nH]ncc3c2)cc1 [Example 43, 7-(4-Fluorophenyl)-8-(7-chloro-1H-indazol-5-yl)-2-(trifluoromethyl)-[1,2,4]triazolo[1,5-a]pyridine]",pIC50,11.0
"Cc1cc(-c2c(N3CC(F)C3)ccn3nc(C(F)(F)F)nc23)cc2cn[nH]c12 [Example 8, 7-(3-Fluoroazetidin-1-yl)-8-(7-methyl-1H-indazol-5-yl)-2-(trifluoromethyl)-[1,2,4]triazolo[1,5-a]pyridine]",pIC50,8.6
"Cc1cc(-c2c(C)ccn3cc(C(C)(C)C)nc23)cc2c1NC(=O)C2 [Example 54, 5-(2-tert-Butyl-7-methyl-imidazo[1,2-a]pyridin-8-yl)-7-methyl-indolin-2-one]",pIC50,7.1
"CCc1ncn2cc(C(F)F)nc2c1-c1cc(Cl)c2[nH]ncc2c1 [Example 75, 8-(7-Chloro-1H-indazol-5-yl)-2-(difluoromethyl)-7-ethyl-imidazo[1,2-c]pyrimidine]",pIC50,8.9
"Cc1cc(-c2c(C(C)C)ccn3nc(C(F)(F)F)nc23)cc2cn[nH]c12 [Example 49, 7-Isopropyl-8-(7-methyl-1H-indazol-5-yl)-2-(trifluoromethyl)-[1,2,4]triazolo[1,5-a]pyridine]",pIC50,10.5
"Cc1cc(-c2c(C(F)(F)F)ccn3nc(C(C)C)nc23)cc2c1NC(=O)C2 [Example 39, 5-[2-Isopropyl-7-(trifluoromethyl)-[1,2,4]triazolo[1,5-a]pyridin-8-yl]-7-methyl-indolin-2-one]",pIC50,9.2
"Cc1cc(-c2c(C(F)(F)F)ccn3nc(C(F)(F)F)nc23)cc2c1NC(=O)C2 [Example 22, 5-(2,7-Bis(trifluoromethyl)-[1,2,4]triazolo[1,5-a]pyridin-8-yl)-7-methylindolin-2-one]",pIC50,9.1
"CCc1nc2c(-c3cc(C)c4[nH]ncc4c3)c(C(F)(F)F)ccn2n1 [Example 35, 2-Ethyl-8-(7-methyl-1H-indazol-5-yl)-7-(trifluoromethyl)-[1,2,4]triazolo[1,5-a]pyridine]",pIC50,8.8
"COc1ccn2cc(C(F)(F)F)nc2c1-c1cc(C)c2[nH]ncc2c1 [Example 59, 7-Methoxy-8-(7-methyl-1H-indazol-5-yl)-2-(trifluoromethyl)imidazo[1,2-a]pyridine]",pIC50,8.1
"Cc1cc(-c2c(-c3ccc(F)cc3)ccn3nc(C4CCCC4)nc23)cc2cn[nH]c12 [Example 9, 2-Cyclopentyl-7-(4-fluorophenyl)-8-(7-methyl-1H-indazol-5-yl)-[1,2,4]triazolo[1,5-a]pyridine]",pIC50,10.8
"Cc1cc(-c2c(N3CCC3)ccn3nc(C(F)(F)F)nc23)cc2cn[nH]c12 [Example 7, 7-(Azetidin-1-yl)-8-(7-methyl-1H-indazol-5-yl)-2-(trifluoromethyl)-[1,2,4]triazolo[1,5-a]pyridine]",pIC50,9.5
"Cc1ccn2nc(C(C)C)nc2c1-c1cc(C)c2[nH]ncc2c1 [Example 40, 2-Isopropyl-7-methyl-8-(7-methyl-1H-indazol-5-yl)-[1,2,4]triazolo[1,5-a]pyridine]",pIC50,6.9
"FC(F)(F)c1cn2cnc(C(F)(F)F)c(-c3cc(Cl)c4[nH]ncc4c3)c2n1 [Example 13, 8-(7-Chloro-1H-indazol-5-yl)-2,7-bis(trifluoromethyl)imidazo[1,2-c]pyrimidine]",IC50,0.316 nM
"FC(F)(F)c1cn2ccc(C(F)(F)F)c(-c3ccc4[nH]ncc4c3)c2n1 [Example 61, 5-(2,7-Bis(trifluoromethyl)imidazo[1,2-a]pyridin-8-yl)-1H-indazole]",pIC50,7.5
"Cc1ccn2cc(C(F)(F)F)nc2c1-c1ccc2[nH]ncc2c1 [Example 50, 8-(1H-Indazol-5-yl)-7-methyl-2-(trifluoromethyl)imidazo[1,2-a]pyridine]",pIC50,7.2
"Cc1cc(-c2c(C(F)(F)F)ncn3cc(C(F)F)nc23)cc2cn[nH]c12 [Example 15, 2-(Difluoromethyl)-8-(7-methyl-1H-indazol-5-yl)-7-(trifluoromethyl)imidazo[1,2-c]pyrimidine]",IC50,2 nM
"Cc1cc(-c2c(C(F)(F)F)ccn3nc(C(F)F)nc23)cc2cn[nH]c12 [Example 16, 8-(7-Methyl-1H-indazol-5-yl)-2-(difluoromethyl)-7-(trifluoromethyl)-[1,2,4]triazolo[1,5-a]pyridine]",pIC50,9.0
"FC(F)(F)c1ncn2c(Cl)c(C3CC3)nc2c1-c1cc(Cl)c2[nH]ncc2c1 [Example 81, 3-Chloro-8-(7-chloro-1H-indazol-5-yl)-2-cyclopropyl-7-(trifluoromethyl)imidazo[1,2-c]pyrimidine]",pIC50,9.9
"Cc1cc(-c2c(C(F)(F)F)ccn3nc(C(F)F)nc23)cc2c1NC(=O)C2 [Example 18, 7-Methyl-5-(2-(difluoromethyl)-7-(trifluoromethyl)-[1,2,4]triazolo[1,5-a]pyridin-8-yl)indolin-2-one]",pIC50,8.6
"FC(F)c1cn2cnc(C(F)(F)F)c(-c3cc(Cl)c4[nH]ncc4c3)c2n1 [Example 14, 8-(7-Chloro-1H-indazol-5-yl)-2-(difluoromethyl)-7-(trifluoromethyl)imidazo[1,2-c]pyrimidine]",IC50,0.398 nM
"Cc1cn2ccc(C(F)(F)F)c(-c3cc(C)c4[nH]ncc4c3)c2n1 [Example 94, 2-Methyl-8-(7-methyl-1H-indazol-5-yl)-7-(trifluoromethyl)imidazo[1,2-a]pyridine]",pIC50,8.1
"CCc1cn2cnc(C(F)(F)F)c(-c3cc(Cl)c4[nH]ncc4c3)c2n1 [Example 64, 8-(7-Chloro-1H-indazol-5-yl)-2-ethyl-7-(trifluoromethyl)imidazo[1,2-c]pyrimidine]",pIC50,9.3
"Cc1cc(-c2c(C#N)ccn3nc(C(F)(F)F)nc23)cc2cn[nH]c12 [Example 10, 8-(7-Methyl-1H-indazol-5-yl)-2-(trifluoromethyl)-[1,2,4]triazolo[1,5-a]pyridine-7-carbonitrile]",pIC50,7.7
"Cc1nc(C2CC2)c(-c2cc(Cl)c3[nH]ncc3c2)c2nc(C(F)F)cn12 [Example 80, 8-(7-Chloro-1H-indazol-5-yl)-7-cyclopropyl-2-(difluoromethyl)-5-methyl-imidazo[1,2-c]pyrimidine]",pIC50,9.2
"FC(F)(F)c1ncn2cc(C3CC3)nc2c1-c1cc(Cl)c2[nH]ncc2c1 [Example 67, 8-(7-Chloro-1H-indazol-5-yl)-2-cyclopropyl-7-(trifluoromethyl)imidazo[1,2-c]pyrimidine]",pIC50,9.9
"Cc1cc(-c2c(-c3ccc(F)cc3)ccn3nc(C4CC4)nc23)cc2cn[nH]c12 [Example 48, 2-Cyclopropyl-7-(4-fluorophenyl)-8-(7-methyl-1H-indazol-5-yl)-[1,2,4]triazolo[1,5-a]pyridine]",pIC50,10.1
